Values quoted from earlier work, collected in US8980870B2, “Solid telmisartan pharmaceutical formulations” (Boehringer Ingelheim International GmbH, priority 2002, dated 2015).

Conditions: physiological pH range of the gastrointestinal tract, between pH 1 to 7; both polymorphic forms A and B

SMILES: CCCc1nc2c(C)cc(-c3nc4ccccc4n3C)cc2n1Cc1ccc(-c2ccccc2C(=O)O)cc1 [telmisartan, 4′-[2-n-propyl-4-methyl-6-(1-methylbenzimidazol-2-yl)benzimidazol-1-ylmethyl]biphenyl-2-carboxylic acid]
- solubility in aqueous systems: very poor solubility
